Assay results from BindingDB's records for doi:10.1073/pnas.121170598 (Merck Research Laboratories, 2001).
Bridge positions count the residues as written; N and C are the ends. Peptide text beside a SMILES is read from it.

Tests used:
[1] = target: Melanin-concentrating hormone receptor 2 (Homo sapiens, UniProt Q969V1)
[2] = target: Melanin-concentrating hormone receptor 1 (Homo sapiens, UniProt Q99705)
Chain of Melanin-concentrating hormone receptor 1 (Q99705 as listed by the source): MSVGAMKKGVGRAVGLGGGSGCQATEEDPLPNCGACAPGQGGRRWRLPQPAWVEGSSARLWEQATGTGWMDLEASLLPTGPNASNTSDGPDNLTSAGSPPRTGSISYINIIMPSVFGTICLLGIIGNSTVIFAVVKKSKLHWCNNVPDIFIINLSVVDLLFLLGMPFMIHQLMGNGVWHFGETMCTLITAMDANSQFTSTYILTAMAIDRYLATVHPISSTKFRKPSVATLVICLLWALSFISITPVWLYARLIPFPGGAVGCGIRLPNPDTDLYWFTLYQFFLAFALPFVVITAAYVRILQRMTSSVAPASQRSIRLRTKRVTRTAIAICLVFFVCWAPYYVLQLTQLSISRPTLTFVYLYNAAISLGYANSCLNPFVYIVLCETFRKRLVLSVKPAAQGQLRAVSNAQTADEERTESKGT

Chain of Melanin-concentrating hormone receptor 2 (Q969V1 whole entry): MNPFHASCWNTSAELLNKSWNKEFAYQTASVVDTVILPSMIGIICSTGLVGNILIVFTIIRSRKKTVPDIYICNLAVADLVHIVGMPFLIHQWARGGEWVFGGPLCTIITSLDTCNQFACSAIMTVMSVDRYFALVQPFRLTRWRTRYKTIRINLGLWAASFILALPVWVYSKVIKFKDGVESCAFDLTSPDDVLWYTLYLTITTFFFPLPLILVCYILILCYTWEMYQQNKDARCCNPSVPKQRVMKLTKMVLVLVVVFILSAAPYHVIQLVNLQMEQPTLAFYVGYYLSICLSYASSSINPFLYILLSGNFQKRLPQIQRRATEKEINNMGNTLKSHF

Question: For `CSCC[C@@H]1NC(=O)[C@@H](NC(=O)[C@H](CCCNC(=N)N)NC(=O)[C@H](CC(C)C)NC(=O)[C@H](CCSC)NC(=O)[C@H](CC(=O)O)NC(=O)[C@H](Cc2ccccc2)NC(=O)[C@@H](N)CC(=O)O)CSSC[C@@H](C(=O)N[C@@H](Cc2c[nH]c3ccccc23)C(=O)N[C@@H](CCC(N)=O)C(=O)N[C@H](C(=O)O)C(C)C)NC(=O)[C@@H]2CCCN2C(=O)[C@H](CCCNC(=N)N)NC(=O)[C@H](Cc2ccc(O)cc2)NC(=O)[C@H](C(C)C)NC(=O)[C@H](CCCNC(=N)N)NC(=O)CNC(=O)[C@H](CC(C)C)NC1=O` [hMCH], which Ki [1] is on record?
Answer: The Ki was 1.5 nM.

Question: `CSCC[C@@H]1NC(=O)[C@@H](NC(=O)[C@H](CCCNC(=N)N)NC(=O)[C@H](CCSC)NC(=O)[C@@H](NC(=O)[C@@H](N)CC(=O)O)[C@@H](C)O)CSSC[C@@H](C(=O)N[C@@H](Cc2c[nH]c3ccccc23)C(=O)N[C@@H](CCC(=O)O)C(=O)N[C@H](C(=O)O)C(C)C)NC(=O)[C@@H]2CCCN2C(=O)[C@H](CCCNC(=N)N)NC(=O)[C@H](Cc2ccc(O)cc2)NC(=O)[C@H](C(C)C)NC(=O)[C@H](CCCNC(=N)N)NC(=O)CNC(=O)[C@H](C(C)C)NC1=O` [Salmon MCH] (H-DTMRCMVGRVYRPCWEV-OH; disulfide 5-14) was tested. Which Ki [2] did it give?
Answer: Its Ki is 0.2 nM.

Question: And the Ki [1]?
Answer: The Ki was 437 nM.
